# Source: publication PMC11188874, “HDAC6 Inhibition Releases HR23B to Activate Proteasomes, Expand the Tumor Immunopeptidome and Amplify T-cell Antimyeloma Activity” (Cancer Research Communications, 2024)
# Values joined by “and” are separate entries in the source; they are usually repeats but may differ in a detail not shown here. Equal entries are not always repeated. Where two headings read alike, the source gives them in different places. Peptide text beside a SMILES is read from it. * marks the point of attachment. Cbz = O=C(OCc1ccccc1)*
# Legend:
# [1] = system: proteasome ChT-like activity in RPMI-8226 cells; assay: Cell-based high-throughput screen of proteasome ChT-like activity (LLVY-R110); design: species or system human; details: 3 µmol/L, 21 hours, then LLVY-R110 18 hours
# purified proteasomes = assay: Activity of proteasomes purified by conventional methods; assay type: biochemical
# MMCLs = assay: pan-HLA-ABC presentation in MMCLs by flow cytometry; assay type: cell-based, human; details: pan-HLA ABC antibody
# E.G7-Ova cells [2] = assay: Quantitation of […]–MHC-I complex by flow cytometry; assay type: cell-based, mouse; details: for increase in presentation of the class I molecule–SIINFEKL complex: normalized to untreated (Fig. 2A)
# [3] = system: proteasome ChT-like activity in MMCLs; assay: Proteasome ChT-like activity in cultured multiple myeloma cells (LLVY-R110); details: for proteasome activity (in words): MM cells, 1 uM, 72 h (Fig. S14C, S14D); for increase in proteasome activity: RPMI-8226 cells, 1 µmol/L, 72 hours (Fig. 1B, 1D)
# E.G7-Ova cells [4] = assay: Murine MHC-I immunopeptidome analysis by MS; assay type: cell-based, mouse; details: 1 µmol/L, 72 hours
# E.G7-Ova cells [5] = assay: B3Z T-cell hybridoma assay, annexin-V/propidium iodide; assay type: cell-based, mouse; details: pretreatment 1 µmol/L 72 hours, E:T 2:1 (Fig. 2C)
# RPMI-8226 cells = assay: Myeloma MHC-I immunopeptidome analysis by MS; assay type: cell-based, human; details: 1 µmol/L
# 27 cancer cell lines [6] = details: 1 µmol/L, 72 hours
# [7] = Cell viability, XTT assay; assay type: cell-based; details: human, RPMI-8226 cells, XTT (Fig. 1C, 1D), read-out: cell viability maintained
# Protocol: Cell viability was determined using the XTT assay ([23]). Briefly, 50,000 cells were added to 96-well plates in a volume of 250 µL in RPMI media that lacked phenol red. Drugs were added at indicated concentrations and plates incubated under standard conditions for 72 hours. XTT sodium salt tetrazolium reagent (Gold Biotechnology, catalog no. X-200) was diluted in PBS (1 mg/mL) containing phenazine methosulfate (PMS, 7.5 µg/mL). Cells were incubated with the XTT+PMS reagent for 3 hours at 37°C and absorbance was measured at 450 nm using a Molecular Devices i3x Spectramax plate reader.
# 27 cancer cell lines [8] = assay: Proteasome activity in a panel of cancer cell lines (LLVY-R110); details: 1 µmol/L, 72 hours; for Number of Cell Lines: Both Increased: proteasome activity and class I presentation
# HDAC10 = target: T1, HDAC10 (Homo sapiens, UniProt Q969S8); assay: In vitro biochemical activity assay, HDAC10; details: for IC50: 10-dose, 3-fold serial dilution, Data 1-3 are triplicates, substrate Ac-spermidine-AMC
# T1 construct: purchased Reaction Biology (Malvern, PA)
# T1 sequence (Q969S8 1-669): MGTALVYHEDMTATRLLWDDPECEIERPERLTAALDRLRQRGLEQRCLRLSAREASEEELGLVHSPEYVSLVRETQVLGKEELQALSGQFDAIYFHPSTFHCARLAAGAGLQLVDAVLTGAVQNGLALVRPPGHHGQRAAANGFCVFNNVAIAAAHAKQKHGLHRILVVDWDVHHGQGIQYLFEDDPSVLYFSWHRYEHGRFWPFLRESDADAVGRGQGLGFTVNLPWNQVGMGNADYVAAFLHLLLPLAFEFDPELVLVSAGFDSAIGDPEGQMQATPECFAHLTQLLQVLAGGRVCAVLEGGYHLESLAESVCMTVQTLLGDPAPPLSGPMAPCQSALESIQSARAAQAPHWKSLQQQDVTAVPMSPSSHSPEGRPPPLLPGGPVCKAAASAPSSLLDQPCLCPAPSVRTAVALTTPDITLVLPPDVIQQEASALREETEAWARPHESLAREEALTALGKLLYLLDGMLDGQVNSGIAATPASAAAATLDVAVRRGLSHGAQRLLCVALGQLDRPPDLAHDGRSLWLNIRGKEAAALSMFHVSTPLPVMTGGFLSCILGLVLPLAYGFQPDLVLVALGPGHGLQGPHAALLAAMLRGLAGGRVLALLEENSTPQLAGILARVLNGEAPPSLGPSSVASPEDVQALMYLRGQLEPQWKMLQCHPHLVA
# [9] = RPMI-8226 multiple myeloma cells
structure (smiles),measurement,setting,value
CC[C@@H](C(=O)[C@@H](C)[C@@H](O)[C@H](C)[C@@H]1O[C@@H]([C@@H](CC)C(=O)O)CC[C@@H]1C)[C@H]1O[C@]2(C=C[C@@H](O)[C@]3(CC[C@@](C)([C@H]4CC[C@](O)(CC)[C@H](C)O4)O3)O2)[C@H](C)C[C@@H]1C [Salinomycin],Fold-Increase of proteasome ChT-like activity in the HTS,[1],2.0 fold
same,direct effect on the activity of purified proteasomes,purified proteasomes,did not observe a direct effect
COc1ccc(C[C@H](NC(=O)[C@H](C)NC(=O)CN2CCOCC2)C(=O)N[C@@H](Cc2ccccc2)C(=O)C2(C)CO2)cc1 (stereo in doubt) [ONX-0914],Fold-Decrease of proteasome ChT-like activity in the HTS,[1],4 fold
COc1ccccc1CN(C)C(=O)Cn1c(CCC(=O)O)nc2c(Cl)cccc2c1=O [SGC-UBD253N],pan-MHC-I presentation on MMCLs,MMCLs,did not increase
same,SIINFEKL–MHC-I complex presentation (in words),E.G7-Ova cells [2],not changed
C/C=C1\NC(=O)[C@H]2CSSCC/C=C/[C@H](CC(=O)N[C@H](C(C)C)C(=O)N2)OC(=O)[C@H](C(C)C)NC1=O [romidepsin],proteasome activity (in words),[3],did not significantly increase
Nc1nc2ccc(OC(F)(F)F)cc2s1 [Riluzole],direct effect on the activity of purified proteasomes,purified proteasomes,did not observe a direct effect
COc1ccccc1CNC(=O)Cn1c(CCC(=O)O)nc2c(Cl)cccc2c1=O [SGC-UBD253],pan-MHC-I presentation on MMCLs,MMCLs,increased pan-MHC-I presentation in a dose-dependent manner
same,SIINFEKL–MHC-I complex presentation (in words),E.G7-Ova cells [2],increased
COc1ccc(-c2ccc3ncc4c(c3c2)n(-c2ccc(N3CCNCC3)c(C(F)(F)F)c2)c(=O)n4C)cn1 [BGT226],Fold-Decrease of proteasome ChT-like activity in the HTS,[1],25 fold
O=C(NO)c1cnc(NC2(c3ccccc3)CC2)nc1 [ACY-738],peak area of SIINFEKL compared with untreated,E.G7-Ova cells [4],1.5 fold
same,Fold-Increase of proteasome ChT-like activity in the HTS,[1],1.6 fold
same,increase in presentation of the class I molecule–SIINFEKL complex,E.G7-Ova cells [2],over 3 fold
same,number of CD8neg/annexin-V+/propidium iodide+ E.G7-Ova cells after coculture with B3Z cells,E.G7-Ova cells [5],significantly increased
same,number of peptides increased more than 20-fold,RPMI-8226 cells; 72 hours,four
same,number of peptides with ≥2-fold increase,"RPMI-8226 cells; 72 hours, 8,019 peptides detected",118 peptides
same,Number of Cell Lines: Increased Class I Presentation,27 cancer cell lines [6],23 cell lines
same,"viability at 16 h, 1 µmol/L",[7]; [9],≥ 75%
same,Number of Cell Lines: Increased Proteasome Activity,27 cancer cell lines [8],19 cell lines
same,Number of Cell Lines: Both Increased,27 cancer cell lines [8],18 cell lines
same,increase in proteasome activity,[3],≥ 30%
COc1ccc(C2CNC(=O)C2)cc1OC1CCCC1 (centres unmarked) [Rolipram],Fold-Increase of proteasome ChT-like activity in the HTS,[1],1.3 fold
CN(C)CCc1c[nH]c2ccc(C[C@H]3COC(=O)N3)cc12 [Zolmitriptan],Fold-Decrease of proteasome ChT-like activity in the HTS,[1],4 fold
Cn1cc(CNCC2CCN(c3ncc(C(=O)NO)cn3)CC2)c2ccccc21 [Quisinostat],IC50,HDAC10,4.89 nM
CC(C)C[C@H](NC(=O)[C@H](CCc1ccccc1)NC(=O)CN1CCOCC1)C(=O)N[C@@H](Cc1ccccc1)C(=O)N[C@@H](CC(C)C)C(=O)[C@@]1(C)CO1 [Carfilzomib],Fold-Decrease of proteasome ChT-like activity in the HTS,[1],54 fold
OCCN(CCO)c1nc(N2CCCCC2)c2nc(N(CCO)CCO)nc(N3CCCCC3)c2n1 [Dipyridamole],Fold-Increase of proteasome ChT-like activity in the HTS,[1],2.0 fold
C=C[C@](C)(O)CC[C@@H]1[C@@]2(C)CCCC(C)(C)[C@@H]2CC[C@@]1(C)O [Sclareol],Fold-Increase of proteasome ChT-like activity in the HTS,[1],1.4 fold
Cc1[nH]c2ccccc2c1CCNCc1ccc(/C=C/C(=O)NO)cc1 [panobinostat],proteasome activity (in words),[3],did not significantly increase
CN(CCCCCCNc1ccnc2cc(Cl)ccc12)CCCCCCNc1ccnc2cc(Cl)ccc12 [DC-661],Fold-Increase of proteasome ChT-like activity in the HTS,[1],1.6 fold
same,direct effect on the activity of purified proteasomes,purified proteasomes,did not observe a direct effect
C=C(C)[C@@H]1CC[C@]2(C(=O)O)CC[C@]3(C)[C@H](CC[C@@H]4[C@@]5(C)CC[C@H](O)C(C)(C)[C@@H]5CC[C@]43C)[C@@H]12 [Betulinic acid],Fold-Increase of proteasome ChT-like activity in the HTS,[1],1.3 fold
"O.c1cnc2c(c1)ccc1cccnc12 [1,10-phenanthroline monohydrate]",Fold-Increase of proteasome ChT-like activity in the HTS,[1],1.3 fold
same,"viability at 16 h, 1 µmol/L",[7],≥ 75%
same,increase in proteasome activity,[3],≥ 30%
"COC1=C(OC)C(=O)c2ccccc2C1=O [2,3-Dimethoxy-1,4-naphthoquinone]",Fold-Increase of proteasome ChT-like activity in the HTS,[1],1.2 fold
CC(C)C[C@@H](C=O)NC(=O)[C@H](CC(C)C)NC(=O)[C@H](CC(C)C)NC(=O)OCc1ccccc1 [MG-132] (Cbz-Leu-Leu-Leu-aldehyde),Fold-Decrease of proteasome ChT-like activity in the HTS,[1],16 fold
COCCn1c2c([n+](Cc3cnccn3)c1C)C(=O)c1ccccc1C2=O [YM155],Fold-Decrease of proteasome ChT-like activity in the HTS,[1],11 fold
CCN(CCO)CCCC(C)Nc1ccnc2cc(Cl)ccc12 (centres unmarked) [Hydroxychloroquine],Fold-Increase of proteasome ChT-like activity in the HTS,[1],1.2 fold
COc1cccc2c1C(=O)c1c(O)c3c(c(O)c1C2=O)C[C@@](O)(C(=O)CO)C[C@@H]3O[C@H]1C[C@H](N)[C@@H](O)[C@H](C)O1 [Epirubicin],Fold-Decrease of proteasome ChT-like activity in the HTS,[1],4 fold
CC(C)C[C@H](NC(=O)[C@@H](NC(=O)c1cccc(-c2ccccc2)n1)[C@@H](C)O)B(O)O [CEP-18770],Fold-Decrease of proteasome ChT-like activity in the HTS,[1],4 fold
CN1CCc2c(c3ccccc3n2Cc2ccc(C(=O)NO)cc2)C1 [Tubastatin-A],peak area of SIINFEKL compared with untreated,E.G7-Ova cells [4],1.5 fold
same,effect on HDAC10 biochemical activity,HDAC10; at higher concentrations,inhibited
same,increase in presentation of the class I molecule–SIINFEKL complex,E.G7-Ova cells [2],over 3 fold
same,number of CD8neg/annexin-V+/propidium iodide+ E.G7-Ova cells after coculture with B3Z cells,E.G7-Ova cells [5],significantly increased
same,global peak intensity of peptides,RPMI-8226 cells; 72 hours,approximately 2 fold
same,Number of Cell Lines: Increased Class I Presentation,27 cancer cell lines [6],19 cell lines
same,"viability at 16 h, 1 µmol/L",[7]; [9],≥ 75%
same,Number of Cell Lines: Increased Proteasome Activity,27 cancer cell lines [8],17 cell lines
same,Number of Cell Lines: Both Increased,27 cancer cell lines [8],16 cell lines
same,increase in proteasome activity,[3],≥ 30%
CO[C@H]1C[C@@H]2CC[C@@H](C)[C@@](O)(O2)C(=O)C(=O)N2CCCC[C@H]2C(=O)O[C@H]([C@H](C)C[C@@H]2CC[C@@H](O)[C@H](OC)C2)CC(=O)[C@H](C)/C=C(\C)[C@@H](O)[C@@H](OC)C(=O)[C@H](C)C[C@H](C)/C=C/C=C/C=C/1C [Rapamycin],Fold-Increase of proteasome ChT-like activity in the HTS,[1],1.8 fold
O=C(CCCCCCNC(=O)c1cnc(N(c2ccccc2)c2ccccc2)nc1)NO [ACY-1215],IC50,HDAC10,368 nM and 333 nM and 356 nM
same,increase in presentation of the class I molecule–SIINFEKL complex,E.G7-Ova cells [2],over 3 fold
same,number of CD8neg/annexin-V+/propidium iodide+ E.G7-Ova cells after coculture with B3Z cells,E.G7-Ova cells [5],significantly increased
same,Number of Cell Lines: Increased Class I Presentation,27 cancer cell lines [6],19 cell lines
same,"viability at 16 h, 1 µmol/L",[7]; [9],≥ 75%
same,Number of Cell Lines: Increased Proteasome Activity,27 cancer cell lines [8],21 cell lines
same,Number of Cell Lines: Both Increased,27 cancer cell lines [8],18 cell lines
same,increase in proteasome activity,[3],≥ 30%
"O=C(CCCCCCC(=O)Nc1ccccc1)NO [vorinostat, suberoylanilide hydroxamic acid]",proteasome activity (in words),[3],did not significantly increase
CNc1ccc2oc(C[C@H]3O[C@@]4(CC[C@H]3C)O[C@H]([C@H](C)C(=O)c3ccc[nH]3)[C@H](C)C[C@H]4C)nc2c1C(=O)O [Calcimycin],Fold-Decrease of proteasome ChT-like activity in the HTS,[1],5 fold
COC[C@H](NC(=O)c1cnc(C)s1)C(=O)N[C@@H](COC)C(=O)N[C@@H](Cc1ccccc1)C(=O)[C@@]1(C)CO1 [ONX-0912],Fold-Decrease of proteasome ChT-like activity in the HTS,[1],4 fold
CC(=O)O[C@H]1CC[C@@]2(C)C(=CC[C@@H]3[C@@H]2CC[C@]2(C)C(c4cccnc4)=CC[C@@H]32)C1 [Abiraterone acetate],Fold-Increase of proteasome ChT-like activity in the HTS,[1],1.7 fold
same,direct effect on the activity of purified proteasomes,purified proteasomes,did not observe a direct effect
C1=C/COCc2cc(ccc2OCCN2CCCC2)Nc2nccc(n2)-c2cccc(c2)COC/1 [Pacritinib],Fold-Decrease of proteasome ChT-like activity in the HTS,[1],5 fold
